Where two headings read alike, the source gives them in different places.

One data set relates to Hsp70. Type of data set: cell-based.
The subject of the next data set is protein aggregation. Description: In vitro Huntington Aggregation Assay. Type of data set: biochemical.
The next data set relates to human leukemia HL-60. To be noted: cited from earlier work; for rank order of potency: apoptosis induction in HL-60 and topoisomerase II inhibition, Nagase et al. 2003.
The subject of another data set is nitric oxide production. The following applies: cited from earlier work.
A further data set deals with NF-κB activation. To be noted: cited from earlier work.
The subject of the next data set is topoisomerase II. To be noted: cited from earlier work.
For data set [1], the system named is heat shock proteins (HSPs). The following applies: cited from earlier work.
For a further data set, the system named is microglia. To be noted: cited from earlier work.
The test system of another data set is TNF-α. The following applies: cited from earlier work.
The next data set deals with IL-1β. The following applies: cited from earlier work.
The next data set concerns inducible NO synthase. The following applies: cited from earlier work.
Data set [2] concerns constitutive NO synthases. The following applies: cited from earlier work.
The nature of data set [3]: Cellular toxicity / cytotoxicity. The data set is classed as cell-based.

With dihydropristimerin, the Hsp70 generation result was “.050” in the data set with Hsp70 (Dose 0.1 uM); “.039” with Hsp70 (Dose 0.3 uM); “.037” in the data set with Hsp70 (Dose 0.5 uM); “.043” in the data set on Hsp70 (Dose 1.0 uM); “.042” with Hsp70 (Dose 2.0 uM); “.045” with Hsp70 (Dose 3.0 uM). Also, the Hsp70 generation entry in the data set with Hsp70 (Dose 6 uM) is reported as “.102”; in the data set on Hsp70 (Dose 10 uM) it was “.034”. Also, in the data set on protein aggregation, the “inhibition of protein aggregation in the in vitro Huntington Aggregation assay” value (shortened to “inhibition of protein aggregation”) is “potent”.
On to `COc1cc([C@@H]2c3cc4c(cc3[C@@H](O[C@@H]3O[C@@H]5CO[C@@H](C)O[C@H]5[C@H](O)[C@H]3O)[C@H]3COC(=O)[C@H]23)OCO4)cc(OC)c1O` [etoposide], for which the “rank order of potency” value in the data set with human leukemia HL-60 is “celastrol>etoposide>dihydrocelastrol”.
On to `N=C(N)NN` [aminoguanidine], for which the IC50 with nitric oxide production is 16000 nM.
In the case of `CC1=C(O)C(=O)C=C2C1=CC=C1[C@@]2(C)CC[C@@]2(C)[C@@H]3C[C@](C)(C(=O)O)CC[C@]3(C)CC[C@]12C` [celastrol, reference compound], the Hsp70 generation entry in the data set with Hsp70 (Dose 0.1 uM) was “.043”; with Hsp70 (Dose 0.3 uM), “.046”; in the data set with Hsp70 (Dose 0.5 uM), “.039”; in the data set on Hsp70 (Dose 1.0 uM) it was “.423”; in the data set on Hsp70 (Dose 2.0 uM), 15.0; in the data set with Hsp70 (Dose 3.0 uM), 4.54. Further, the Hsp70 generation result in the data set on Hsp70 (Dose 6 uM) is given as “.240”; in the data set with Hsp70 (Dose 10 uM) it was “.034”. In addition, the “inhibition of protein aggregation” value in the data set with protein aggregation is reported as “potent inhibitor”. In addition, the figures for the IC50 in the data set with NF-κB activation and with nitric oxide production were 270 nM and 230 nM, respectively. For the same compound, in the data set with human leukemia HL-60, the “rank order of potency” value is “celastrol>etoposide>dihydrocelastrol”. In the data set with human leukemia HL-60 (human leukemia HL-60 model), the concentration inducing apoptosis entry was “sub-micromolar concentrations”. Besides, the “concentration inhibiting topoisomerase II” value in the data set with topoisomerase II is on record as “sub-micromolar concentrations”. In addition, the “concentration enhancing cellular HSP production” value in data set [1] is reported as “sub-micromolar concentrations”. Besides, the “inhibition of microglial activation” value with microglia is on record as “inhibits”. In the data set on TNF-α, the “inhibition of production of TNF-α” value is “inhibits”. For the same compound, in the data set on IL-1β, the “inhibition of production of IL-1β” value is listed as “inhibits”. Also, the “inhibition of expression of inducible NO synthase” value with inducible NO synthase is given as “inhibits”. The “inhibition of constitutive NO synthases” value in [2] is “does not inhibit”.
With `COC(=O)[C@]1(C)CC[C@]2(C)CC[C@]3(C)C4=CCc5c(cc(OC(C)=O)c(OC(C)=O)c5C)[C@]4(C)CC[C@@]3(C)[C@@H]2C1` [dihydropristimerin diacetate], the Hsp70 generation result is listed as “.038” in the data set on Hsp70 (Dose 0.1 uM); “.048” in the data set with Hsp70 (Dose 0.3 uM); “.042” in the data set with Hsp70 (Dose 0.5 uM); “.049” in the data set on Hsp70 (Dose 1.0 uM); “.047” with Hsp70 (Dose 2.0 uM); “.049” in the data set on Hsp70 (Dose 3.0 uM). The Hsp70 generation result with Hsp70 (Dose 6 uM) was “.246”; in the data set with Hsp70 (Dose 10 uM) it was “.273”.
For the compound `Cc1c(O)c(O)cc2c1CC=C1[C@@]2(C)CC[C@@]2(C)[C@@H]3C[C@](C)(C(=O)O)CC[C@]3(C)CC[C@]12C` [dihydrocelastrol], the Hsp70 generation result with Hsp70 (Dose 0.1 uM) is recorded as “.051”; in the data set with Hsp70 (Dose 0.3 uM), “.036”; in the data set with Hsp70 (Dose 0.5 uM) it was “.033”; with Hsp70 (Dose 1.0 uM), “.052”; with Hsp70 (Dose 2.0 uM) it was “.049”; in the data set on Hsp70 (Dose 3.0 uM) it was “.117”. Besides, the Hsp70 generation is 3.37 with Hsp70 (Dose 6 uM) and “.044” with Hsp70 (Dose 10 uM). In addition, the “inhibition of protein aggregation” value in the data set on protein aggregation is recorded as “potent”. In the data set with human leukemia HL-60, the “rank order of potency” value is “celastrol>etoposide>dihydrocelastrol”. Also, the “activity in inducing apoptosis compared with celastrol and etoposide” value with human leukemia HL-60 (human leukemia HL-60 model) was “weaker activity”. In addition, the “activity in inhibiting topoisomerase II compared with celastrol and etoposide” value with topoisomerase II is recorded as “weaker activity”.
As to dihydrocelastrol diacetate, the “potency compared with celastrol” value with Hsp70 was “at least equivalent to celastrol in potency”. The Hsp70 generation entry in the data set on Hsp70 (Dose 0.1 uM) is listed as “.041”; in the data set with Hsp70 (Dose 0.3 uM) it was “.039”; with Hsp70 (Dose 0.5 uM), “.041”; with Hsp70 (Dose 1.0 uM), “.071”; in the data set with Hsp70 (Dose 2.0 uM) it was 12.3; with Hsp70 (Dose 3.0 uM) it was 2.61. In addition, the results for the Hsp70 generation result in the data set with Hsp70 (Dose 6 uM) and in the data set with Hsp70 (Dose 10 uM) were “.040” and “.096”, respectively. Also, in the data set with protein aggregation, the “inhibition of protein aggregation” value was “potent”. The “cytotoxicity compared with celastrol” value in [3] was “reduced cytotoxicity”.
`COC(=O)[C@]1(C)CC[C@]2(C)CC[C@]3(C)C4=CC=C5C(=CC(=O)C(O)=C5C)[C@]4(C)CC[C@@]3(C)[C@@H]2C1` [pristimerin, reference compound]: the Hsp70 generation entry in the data set with Hsp70 (Dose 0.1 uM) was “.30”; with Hsp70 (Dose 0.3 uM), “.056”; with Hsp70 (Dose 0.5 uM), “.331”; in the data set on Hsp70 (Dose 1.0 uM), 2.84; with Hsp70 (Dose 2.0 uM), “.094”; in the data set with Hsp70 (Dose 3.0 uM), “.035”. Besides, the Hsp70 generation entry is reported as “.033” in the data set on Hsp70 (Dose 6 uM) and 1.25 in the data set with Hsp70 (Dose 10 uM).

The values are drawn from patent US20040220267A1, “Derivatives of pentacyclic nortriterpene quinone methides as compounds useful in the treatment of inflammatory, neurodegenerative, and neoplastic diseases” (priority 2003, published 2004).
